In one data set the target is T1, DYRK1A kinase domain (Homo sapiens, UniProt Q13627).
T1 construct: kinase domain of DYRK1A (126–490) was cloned into pET24a with C-terminal His-tag; made in house; host or cells: E. coli BL21 (DE3) RIL
Briefly: MST direct binding assay. Particulars: MST direct binding, 20 nM fluorescent-labelled DYRK1A kinase domain.

The target of data set [1] is T2, DYRK1A (Homo sapiens, UniProt Q13627).
T2 construct: kinase domain of DYRK1A (126–490) was cloned into pET24a with C-terminal His-tag; His-tag (C); made in house; host or cells: E. coli BL21 (DE3) RIL
Briefly: Cook activity assay (ATP regenerative NADH consuming DYRK1A activity assay). It counts as biochemical. The settings on record: Cook assay.

Another data set has as its system NFAT. Put plainly: NFAT luciferase reporter assay in HEK 293 NFAT cell line expressing DYRK1A. Format: cell-based. Particulars: various concentrations, 30 min, then ionomycin/PMA 5 h. Here is the method: The Renilla luciferase reporter assay was performed in HEK 293 NFAT cell line, constitutively expressing DYRK1A, NFAT and Renilla luciferase under the control of an NFAT-RE promoter. The cells were seeded at 10,000 per well in 96-well white plates (Cellstar, Greiner; Burlington, MA, United States). The following day cells were incubated with the indicated concentration of inhibitor for 30 min, then the medium was changed, and cells were stimulated with 1 μM ionomycin and 10 nM PMA for 5 h. Next, the cell lysate was harvested to measure luciferase activity with Renilla-Glo Luciferase Assay System (Promega, Wisconsin, United States). All experiments were carried out in triplicates.

Data set [2] relates to INS-1E and MIN6 cells. Put plainly: Ki67 proliferation analysis. It counts as cell-based, rat, mouse.
Data set [3] concerns the target T2, DYRK1A. Particulars: cited from earlier work.
A further data set deals with INS-1E cells. Briefly: MTT cytotoxicity and cell survival assay, INS-1E. Format: cell-based, rat. The settings on record: 24 h, 0 to 100 μM.
A further data set relates to DYRK1A in MIN6 cell line. Put plainly: DYRK1A expression by flow cytometry and confocal imaging. Format: cell-based, mouse. Here is the method:
(§1) The presence of insulin, glucagon, C-peptide, Ki67, and DYRK1A was assessed in MIN6 and INS-1E pancreatic cell lines. Before imaging, cells were seeded onto slides at a density of 1 × 10^5 cells and maintained at 37 °C in 95% atmospheric air and 5% CO2 in a humidified atmosphere for 24 h. After washing with fresh medium, cells were incubated with 5 µM inhibitor solution for 24 h. After this time, the solution was replaced with a culture medium for another 48 h. The cells were fixed. Then after washing and permeabilization, they were incubated with specific antibodies diluted in PBS. Next, the cells were incubated for 10 min with Hoechst33342 (Sigma-Aldrich). After incubation, at 37 °C, in the dark, the cells were washed twice with HBSS (Gibco), the slide was transferred to a microscope table, and the cells were visualized under a Zeiss LSM 880 confocal microscope (Carl Zeiss, Jena, Germany) with a 63× immersion objective. Images were analyzed by Zeiss ZEN Software.
(§2) The presence of insulin, glucagon, C-peptide, Ki67 and DYRK1A was assessed in MIN6 and INS-1E pancreatic cell lines. Before analysis, cells were seeded onto slides at a density of 1 × 10^5 cells and maintained at 37 °C in 95% atmospheric air and 5% CO2 in a humidified atmosphere for 24 h. After washing with fresh medium, cells were incubated with 5 µM inhibitor solution for 24 h. After this time, the solution was replaced with a culture medium for another 48 h. The cells were then detached from the plate using trypsin. The cells were fixed. Then after washing and permeabilization, they were incubated with specific antibodies diluted in PBS. Cells were analyzed with BDAccuri flow cytometer and calculated using FlowJo software (Ashland, Oregon-based FlowJo LLC, a subsidiary of Becton Dickinson).

The subject of data set [4] is INS-1E and MIN6 cells. Briefly: GSIS and insulin, C-peptide, glucagon staining (flow cytometry, confocal). It counts as cell-based, rat, mouse. Also noted: key to insulin+ / glucagon+ / C-peptide+: ↑: moderate; ↑↑: most potent. Here is the method: Cells were cultured in a low glucose medium (5.5 mM) for 24 h. After this medium was changed to lower glucose medium (2 mM) for 2 h and then for high glucose medium (25 mM) for 30 min, media were harvested and/or cells were used for further analysis.
as §1, §2

Data set [5] concerns hiPSC-derived pancreatic organoids. Briefly: Insulin secretion assay in hiPSC-derived β-cell organoids (ELISA). Also noted: key to insulin secretion (ELISA): ↑: moderate; ↑↑: most potent. Format: cell-based, human. The protocol:
Differentiation of hiPSC into iPSC-derived β-cell islets was carried out following the protocol established by Pellegrini et al. for pluripotent stem cells with slight modifications. A day before differentiation, 800,000 cells were seeded on coated with Geltrex (Gibco) 12 wells plate in Essential 8 medium (Gibco) with Y-27632 10 µM (Abcam). The following culture media were used for differentiation:
M1 medium: MCDB131 (Gibco) + 8 mM D-(þ)-Glucose (Sigma) + 1.23 g/L NaHCO3 (Sigma) + 2% BSA (Sigma) + 0.25 mM Vitamin C (Sigma) + 1% Pen/Strep (Lonza, Basel, Switzerland) + 1% L-glutamine (Lonza);
M2 medium: MCDB131 + 20 mM D-Glucose + 1.754 g/L NaHCO3 + 2% BSA + 0.25 mM Vitamin C + Heparin 10mg/mL (Sigma) + 1% Pen/Strep + 1% L-glutamine. All media were filter-sterilized through a 0.22 µm bottle top filter (Corning, New York, NY, USA). For sequential culture medium changes, small molecules and growth factors were added to the base media immediately before daily exchange. Media switches were as follows: days 0–3: STEMdiff™ Definitive Endoderm Kit ([…], Vancouver, Canada) used following manufacturer instructions; days 4–6: M1 medium + 50 ng/mL KGF (Peprotech, London, UK) + 1:50,000 ITS-X (Invitrogen, Carlsbad, CA, USA); days 7–8: M1 medium + 50 ng/mL KGF + 0.25 µM Sant1 (Sigma) + […] Retinoic acid (RA) (Sigma) + 500 nM PdBU (Millipore, Berlington, MA, United States) + 1:200 ITS-X + 200 nM LDN193189 (only Day 7) (Sigma); days 9–13: M1 medium + 50 ng/mL KGF + 0.25 µM Sant1 + 100 nM RA + 1:200 ITS-X; days 14–18: M2 medium + 0.25 µM Sant1 + 100 nM RA + 1 µM XXI (Millipore) + 10 µM Alk5i II (Selleckchem, Munich, Germany) + 1 µM L-3,30,5-Triiodothyronine (T3) (Sigma) + 20 ng/mL Betacellulin (R&D, Minneapolis, MN, USA) + 1:200 ITS-X.
(§3) The Insulin ELISA (Ultra Sensitive) was used to quantify insulin levels in control and treated organoids and isolated islets from the mouse pancreas (Crystal Chem, Downers Grove, IL, USA). Islets were homogenized in lysis buffer. Obtained buffer lysates and medium samples (after GSIS) were analyzed for total protein level and subsequently processed following the manufacturer’s protocol.

A further data set relates to isolated mouse islets. Briefly: Insulin secretion assay in isolated mouse islets (ELISA, immunostaining). It counts as cell-based. On the set-up: key to insulin secretion (ELISA): ↑: moderate; ↑↑: most potent. The settings on record: Table 2, Isolated islets. The protocol: as §3
Mice (male, initially 12 weeks old) were sacrificed by cervical vertebral dislocation. Before starting the incision, their bodies were sprayed with 70% EtOH. A hemostatic clamp was placed on both sides of the small intestine, leaving a small pocket to absorb the collagenase solution into the intestine. Next, 3 mL of cold collagenase solution was introduced into the pancreas through the bile duct. The pancreas was removed from the body and placed in a falcon tube containing 2 mL of collagenase solution. The tube was placed in a water bath at 37 °C. It was incubated for 13 min. At the end of this time, the falcon was shaken vigorously. The collagenase was inactivated with FBS. The sample was centrifuged for 30 s (300× g). This step was repeated 3 times. HBSS was then added to the sample and centrifuged two more times at the same speed as before. After the last centrifugation, HBSS was removed and Percoll (1.045 g/mL) (Sigma-Aldrich) was added. The Percoll solution was left to sediment for 5 min. After this time, the islets were collected from the bottom of the falcon. The step was repeated 3 times. Finally, islets were cultured in RPMI-1640 (Pan Biotech) supplemented with 2 mM L-glutamine (Gibco), 10% fetal bovine serum (FBS) and 1% penicillin/streptomycin and the culture medium was changed daily.
The presence of insulin, C-peptide, glucagon, Pdx-1 and Nkx6.1 was assessed in isolated mouse islets. Islets were fixed in PFA (3.8%) for 30 min, washed with PBS and 0.15% Triton X-100 was added for 1.5 h, then washed again with PBS and samples were transferred to 1% BSA + 0.05% Triton X-100 solution for 3 h. After this time, islets were incubated with primary antibody for 12 h at 4 °C. The secondary antibody was then added for 3 h. Next, the islets were incubated for 10 min with Hoechst33342. After incubation, at 37 °C, in the dark, the samples were washed twice with HBSS, the slide was transferred to a microscope table and the cells were visualized under a Zeiss LSM 880 confocal microscope (Carl Zeiss, Jena, Germany) with a 63× immersion objective. Images were analyzed by Zeiss ZEN Software.

For data set [6], the system named is adult human pancreatic beta cells. Also noted: method as in PMID 34335466. The settings on record: cited from earlier work.
The subject of data set [7] is INS-1E and MIN6 cells. Briefly: MTT cytotoxicity and cell survival assay, β-cell lines. The settings on record: Table 2, Cell lines.
The next data set deals with mTOR. The settings on record: cited from earlier work.
[8] abbreviates: DYRK1A 0.5 µM, ATP 128 µM, DYRKtide 1 mM.

The text below walks through data of publication PMC8467532, “DYRK1A Kinase Inhibitors Promote β-Cell Survival and Insulin Homeostasis” (Cells, 2021).

Where two headings read alike, the source gives them in different places.

The compound `NS(=O)(=O)c1ccc(-c2cnc3[nH]cc(-c4cccnc4)c3c2)cc1` [AC12, 4-(3-(pyridin-3-yl)-1H-pyrrolo[2,3-b]pyridin-5-yl)benzenesulfonamide] gave a Kd at DYRK1A kinase domain of 380 ± 60 nM. Moreover, the Ki was 100 ± 30 nM on DYRK1A [1] (setting [8]) and < 200 nM on DYRK1A [1] (phosphorylation of substrate peptide).
For the compound `COc1ccc(N)cc1-c1cnc(N)c(C(=O)c2cccnc2)n1` [AC22, (3-azanyl-6-(5-azanyl-2-methoxy-phenyl)pyrazin-2-yl)-pyridin-3-yl-methanone], binding at DYRK1A kinase domain was characterised by a dissociation constant (Kd) of 2600 ± 400 nM. In addition, the Ki was 1600 ± 400 nM on DYRK1A [1] (setting [8]) and > 2800 nM at DYRK1A [3] (Table S1, Cook assay, data previously reported, ref 1 (Czarna et al. 2018)). Besides, in the data set with NFAT, the NFAT-controlled luciferase activity result was “induced NFAT-controlled luciferase activity in a dose-dependent manner”. For the same compound, the “induction of β-cell proliferation (Ki67 labeling of insulin-labeled cells)” value in the data set with INS-1E and MIN6 cells [2] (5 μM, vs untreated cells) is given as “most potent in inducing β-cell proliferation”. For the same compound, the IC50 on DYRK1A [3] (DYRK1A, Figure 1, ref Czarna et al. [44]) was > 6000 nM.
On to `CN1C(=O)[C@H]2CCC[C@H]2N(C2CCCC2)c2nc(Nc3ccc(C(N)=O)cc3)ncc21` [AC23, 4-(((6aS,9aR)-10-cyclopentyl-5-methyl-6-oxo-5,6,6a,7,8,9,9a,10-octahydrocyclopenta[e]pyrimido[5,4-b][1, 4]diazepin-2-yl)amino)benzamide], for which, at DYRK1A kinase domain, binding was put at a Kd of 12900 ± 2600 nM. The compound also showed a Ki on DYRK1A [1] (setting [8]) of 1200 ± 400 nM. Further, the NFAT-controlled luciferase activity entry in the data set on NFAT is “induced NFAT-controlled luciferase activity in a dose-dependent manner”.
As for `C=CC(=O)Nc1ccc(C(=O)c2sc(Nc3ccc(N4CCN(C)CC4)cc3OC)nc2N)cc1` [AC25, N-(4-((4-azanyl-2-((2-methoxy-4-(4-methylpiperazin-1-yl)phenyl)amino)-1,3-thiazol-5-yl)carbonyl)phenyl)propenamide], the dissociation constant (Kd) at DYRK1A kinase domain is 1100 ± 600 nM. For the same compound, the Ki on DYRK1A [1] (setting [8]) worked out at 1000 ± 300 nM. The NFAT-controlled luciferase activity result in the data set with NFAT was “did not promote NFAT-activity”.
`C=CC(=O)Nc1cccc(C(=O)c2sc(Nc3ccc(N4CCN(C)CC4)cc3)nc2N)c1` [AC28] had a Kd at DYRK1A kinase domain of 27000 ± 17000 nM. Moreover, at DYRK1A [1] (setting [8]), the affinity, expressed as Ki, was 3000 ± 1000 nM. Moreover, the NFAT-controlled luciferase activity result in the data set on NFAT is given as “did not promote NFAT-activity”.
For the compound `COc1ccc2c(c1)[nH]c1c(C)nccc12` [Harmine, reference compound], the NFAT-controlled luciferase activity entry in the data set with NFAT is “induced NFAT-controlled luciferase activity in a dose-dependent manner”. Besides, in the data set with INS-1E cells, the “effect on viability of INS-1E cells” value is “did not show adverse effects”. In addition, the “DYRK1A (fluorescence-positive cells, flow cytometry)” value with DYRK1A in MIN6 cell line (MIN6, 24 h with inhibitor, control 74%) was 27.7%. Further, in the data set with DYRK1A in MIN6 cell line (MIN6, vs untreated control), the “DYRK1A signal in confocal imaging” value is “reduced”. For the same compound, the insulin/C-peptide secretion result in the data set with INS-1E and MIN6 cells [4] (GSIS, compound alone) was “enhanced insulin secretion and increases C-peptide levels”. Further, in the data set with INS-1E and MIN6 cells [4] (Table 2, Cell lines), the “C-peptide+” value was “↑”, the “glucagon+” value was “↑↑” and the “insulin+” value is on record as “↑”. Moreover, the insulin release entry in data set [5] (GSIS, compared with untreated control cells) is on record as “markedly increased insulin release”. In addition, in data set [5] (Table 2, hiPSC), the “insulin secretion (ELISA)” value is given as “↑↑”. Also, the “insulin secretion (ELISA)” value with isolated mouse islets is given as “↑”. In addition, the increase in proliferation in data set [6] is reported as 2–4%. For the same compound, the toxicity result in the data set on INS-1E and MIN6 cells [7] was “no”.
As to `Cc1cccc(-c2n[nH]cc2-c2ccc3ncccc3n2)n1` [RepSox, 2-(3-(6-Methyl-2-pyridinyl)-1H-pyrazol-4-yl)-1,5-naphthyridine, reference compound], the “effect on cell proliferation” value in the data set with INS-1E and MIN6 cells [2] (TGF-β inhibitor alone) is recorded as “did not affect cell proliferation”.
With `Nc1ccc(-c2ccc3ncc4ccc(=O)n(-c5cccc(C(F)(F)F)c5)c4c3c2)cn1` [Torin2, 9-(6-Aminopyridin-3-yl)-1-(3-(trifluoromethyl)phenyl) benzo [h][1, 6] naphthyridin-2 (1 H)-one, reference compound], the NFAT-controlled luciferase activity result with NFAT is “did not promote NFAT-activity”. In addition, the “potency towards mTOR compared to AC27” value in the data set with mTOR was 40 times.
